Data set [1] deals with mice. As to the kind of experiment: d9-TML by gavage in mice, plasma d9-TMAVA. Type of data set: in vivo.
Data set [2] deals with T1, γ-isopropylbetaine hydroxylase (Bbox) (Homo sapiens, UniProt O75936).
T1 sequence (O75936 1-387): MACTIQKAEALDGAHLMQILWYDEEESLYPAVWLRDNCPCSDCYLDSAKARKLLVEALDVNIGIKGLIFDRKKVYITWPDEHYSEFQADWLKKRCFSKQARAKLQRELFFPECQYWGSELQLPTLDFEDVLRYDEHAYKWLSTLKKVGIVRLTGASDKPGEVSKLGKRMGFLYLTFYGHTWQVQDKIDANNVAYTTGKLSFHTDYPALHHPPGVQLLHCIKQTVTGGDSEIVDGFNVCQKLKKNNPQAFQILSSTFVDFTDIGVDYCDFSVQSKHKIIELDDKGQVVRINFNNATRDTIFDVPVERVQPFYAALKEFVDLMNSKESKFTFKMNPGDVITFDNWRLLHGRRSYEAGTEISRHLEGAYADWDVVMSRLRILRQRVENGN
Put plainly: Binding affinity of Bbox and TMAVA by surface plasmon resonance. Conditions: read-out: separation rate coefficient constant (binding affinity of Bbox and TMAVA).

For data set [3], the target named is T2, γ-isopropylbetaine hydroxylase (Bbox) (Mus musculus, UniProt Q924Y0).
T2 construct: from tissue; host or cells: whole animal (mice on high-fat diet)
T2 sequence (Q924Y0 1-387): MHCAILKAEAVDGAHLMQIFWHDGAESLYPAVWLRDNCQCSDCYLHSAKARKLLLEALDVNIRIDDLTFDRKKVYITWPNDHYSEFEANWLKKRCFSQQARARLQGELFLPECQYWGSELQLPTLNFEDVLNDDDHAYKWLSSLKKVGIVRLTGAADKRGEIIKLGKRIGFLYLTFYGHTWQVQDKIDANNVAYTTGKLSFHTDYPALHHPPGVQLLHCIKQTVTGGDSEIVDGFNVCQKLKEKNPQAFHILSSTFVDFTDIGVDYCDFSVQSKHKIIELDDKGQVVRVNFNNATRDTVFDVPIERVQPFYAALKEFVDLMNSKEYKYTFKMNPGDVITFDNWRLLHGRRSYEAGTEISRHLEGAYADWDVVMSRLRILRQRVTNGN
Put plainly: d9 carnitine formation from d9-γ-BB in high-fat diet mice given TMAVA. Conditions: 0.325% TMAVA in drinking water and d9-γ-BB, 8 weeks. Type of data set: in vivo. The text has this:
Endogenous carnitine synthesis played an important role in physiological dynamic equilibrium. A carnitine precursor (γ-BB) was hydroxylated by y-isopropylbetaine hydroxylase (Bbox) to produce carnitine.
Mice in an experimental group were given a high-fat diet, drinking water dissolved with 0.325% (mass/volume %) TMAVA, and d9-γ-BB; and mice in the control group were given a high-fat diet, normal drinking water, and d9-γ-BB. After 8 weeks, the mice in the experimental group and the control group were sacrificed and tested.

In data set [4] the test system is mice. Put plainly: Lipidolysis in high-fat diet mice given TMAVA in drinking water for 8 weeks. Type of data set: in vivo. The source says: Mice in an experimental group were given a high-fat diet and drinking water dissolved with 0.325% (mass/volume %) TMAVA; and mice in a control group were given a high-fat diet and normal drinking water. After 8 weeks, the mice in the experimental group and the control group were sacrificed and tested.

Data set [5] deals with mice. Put plainly: Carnitine absorption: d9-carnitine by gavage in TMAVA-treated mice. Type of data set: in vivo.
For data set [6], the target named is T1, γ-isopropylbetaine hydroxylase (Bbox). As to the kind of experiment: Bbox immobilized on a graphene surface and contacted with TMAVA. Conditions: in a similar way as γ-BB to Bbox. Type of data set: binding.
The subject of data set [7] is mice. As to the kind of experiment: High-fat diet mice given TMAVA in drinking water for 8 weeks (fatty liver and myocardial hypertrophy). Type of data set: in vivo. The text has this:
Mice in an experimental group were given a high-fat diet and drinking water dissolved with 0.325% (mass/volume %) TMAVA for 8 weeks; and mice in a control group were given a high-fat diet and normal drinking water. After 8 weeks, the mice in the experimental group and the control group were sacrificed and tested.

For data set [8], the system named is mice. Put plainly: Exogenous carnitine supplementation in TMAVA-induced fatty liver and myocardial hypertrophy in mice. Type of data set: in vivo. Conditions: high-fat diet, 0.325% TMAVA plus 0.325% carnitine in drinking water, 8 weeks. The text has this: Mice were given a high-fat diet and drinking water containing 0.325% (mass/volume %) TMAVA; at the same time, one group was given TMAVA with 0.325% (mass/volume %) carnitine added to the drinking water (carnitine supplementation group).

Data set [9] deals with mice. As to the kind of experiment: TML added to the drinking water of mice, urine TMAVA. Type of data set: in vivo. The text has this: The antibiotic-treated mice were then placed in conventional cages with normal (non-sterile) mice to colonize the intestinal flora.
Another data set deals with T3, DavA and DavB proteins (Pseudomonas putida, UniProt Q88QV1).
T3 sequence (Q88QV1 1-560): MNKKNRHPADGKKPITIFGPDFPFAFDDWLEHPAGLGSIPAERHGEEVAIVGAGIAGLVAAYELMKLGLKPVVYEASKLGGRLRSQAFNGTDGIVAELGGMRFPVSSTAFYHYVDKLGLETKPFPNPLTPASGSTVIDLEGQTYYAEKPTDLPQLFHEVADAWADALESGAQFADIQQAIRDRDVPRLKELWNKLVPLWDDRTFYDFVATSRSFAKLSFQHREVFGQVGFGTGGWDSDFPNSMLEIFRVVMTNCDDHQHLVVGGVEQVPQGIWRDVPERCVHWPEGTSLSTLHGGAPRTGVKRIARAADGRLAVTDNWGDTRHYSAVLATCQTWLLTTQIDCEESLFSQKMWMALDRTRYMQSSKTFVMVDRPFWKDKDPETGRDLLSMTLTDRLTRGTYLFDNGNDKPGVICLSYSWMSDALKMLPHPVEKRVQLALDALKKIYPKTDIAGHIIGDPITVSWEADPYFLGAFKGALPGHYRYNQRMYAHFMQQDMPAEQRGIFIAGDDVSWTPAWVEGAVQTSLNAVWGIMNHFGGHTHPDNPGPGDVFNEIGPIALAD
Conditions: purified DavA and DavB proteins from recombinant Escherichia coli strains.

The subject of the next data set is intestinal flora. Put plainly: Co-incubation of conventionally raised mice feces with TML. Conditions: different concentrations of TML, sterilized feces had no such effect.
The mark [10] stands for this setting: histological analysis, 0.325% TMAVA.

Molecules are shown by their SMILES.

On to `[2H]C([2H])([2H])[N+](CCCCC(N)C(=O)[O-])(C([2H])([2H])[2H])C([2H])([2H])[2H]` (centres unmarked) [d9-TML], for which the “plasma level of d9-TMAVA after d9-TML” value in the data set on mice [1] was “increase over time”.
`C[N+](C)(C)CCCCC(=O)[O-]` [TMAVA, N,N,N-trimethyl-5-aminovaleric acid]: the Kd in data set [2] stood at 9.8 µM. Further, the “level of d9 carnitine compared with control group” value in data set [3] is on record as “significantly lower”. In addition, in the data set on mice [4] (0.325% TMAVA in drinking water), the “level of free fatty acid in the blood compared with control group” value is given as “higher” and the “weight of the mice, decrease compared with control group” value was 30%. Further, in the data set on mice [4] (setting [10]), the “percentage of large and medium-sized fat cells in the subcutaneous fat” value is “decreased”; the “percentage of small fat cells in the subcutaneous fat” value is given as “increased”. For the same compound, in the data set on mice [5], the “level of d9-carnitine in the plasma compared with normal mice” value is recorded as “significantly lower”. For the same compound, in [6], the “binding of TMAVA to Bbox on graphene surface” value is recorded as “can bind to Bbox”. The “concentration of TMAVA in the plasma and various tissues, increase compared with control group” value in the data set on mice [7] (0.325% (mass/volume %) TMAVA in drinking water) was determined as 10 times. Moreover, in the data set on mice [7] (0.325% TMAVA in drinking water), the cardiac systolic function entry is on record as “significantly reduced”; the “concentration of aspartate aminotransferase in the plasma compared with control group” value is on record as “higher”; the “level of triglyceride in the liver and heart tissues compared with control group” value is “significantly higher”; the “lipid droplet content in the liver and heart tissues (oil red O) compared with control group” value is given as “higher”. For the same compound, the “liver and heart size compared with control group” value in the data set on mice [7] (0.325% TMAVA in drinking water) is “significantly larger”. Moreover, the “content of triglyceride in the plasma compared with control group” value in the data set with mice [7] (fasting state, 0.325% TMAVA in drinking water) is “significantly higher”.
As to `C[N+](C)(C)CC(O)CC(=O)[O-]` (centres unmarked) [carnitine], in the data set with mice [8], the “aspartate aminotransferase after carnitine supplementation” value was 50 U/L; the cardiac systolic function result is “significantly improved”; the “content of triglyceride in the liver tissues, decrease” value is listed as 20%; the “level of free fatty acid in the plasma” value is reported as “decreased”. For the same compound, in the data set with mice [8], the “level of triglyceride in the plasma, decrease” value is listed as 50%; the “lipid content in the liver tissues (oil red O)” value is “decreased”; the “weight of the heart” value is on record as “significantly reduced”.
On to `C[N+](C)(C)CCCC[C@H](N)C(=O)O` [TML, Trimethyllysine], for which the “TMAVA level in urine” value with mice [9] is on record as “increased”. In addition, on DavA and DavB proteins, the “TMAVA production in vitro from TML” value is “time-dependently produced”. Also, the “TMAVA level on co-incubation of feces with TML” value in the data set on intestinal flora was “increased over time and concentration”.

The record behind these values is US20230113511A1, “USE OF TMAVA ANTAGONIST AND SYSTEM FOR DIAGNOSING FATTY LIVER OR HEART FAILURE” (ProgLead, Inc, priority 2020, published 2023).
